Active and inactive are the calls of the source.
Assays:
[1] = target: T1, Endoribonuclease toxin MazF (Escherichia coli K-12, UniProt P0AE70); test: MazF endoribonuclease activators, SAR follow-up, biochemical, fluorescence, single-stranded RNA substrate (AID 588603); format: functional
T1 sequence (P0AE70 whole entry): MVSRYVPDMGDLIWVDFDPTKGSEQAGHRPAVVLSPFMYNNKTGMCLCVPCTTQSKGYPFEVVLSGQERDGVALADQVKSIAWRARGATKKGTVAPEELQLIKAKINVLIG

[2] = target: T1, Endoribonuclease toxin MazF; test: MazF toxin RNase activators, dose response, biochemical, fluorescence, single-stranded RNA substrate, uHTS hits (AID 588481); format: functional
MEF = test: SAR analysis of small molecule cytotoxicity of MazEF TA System activators in embryonic fibroblast (MEF) cells. [Related pubchem assays (depositor defined):AID504720, AID504743]; format: functional; settings: Mus musculus
[3] = target: T1, Endoribonuclease toxin MazF; test: SAR analysis of small molecule activators of the MazEF TA System via a fluorescence-based single-stranded RNase assay counterscreen. [Related pubchem assays (depositor defined):AID504720, AID504743]; format: functional
[4] = target: T1, Endoribonuclease toxin MazF; test: fluorescent RNA oligo signal without MazF, dose response, counter-screen for MazEF activator project, biochemical, fluorescence, single-stranded RNase substrate (AID 588502); format: functional
[5] = target: T2, Heat shock factor protein 1 (Mus musculus, UniProt P38532); test: inhibition of MG132-induced HSE-luciferase signal, confirmation, cell-based, NIH3T3, luminescence, dose retest (AID 2382); format: functional;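 also: NIH3T3 fibroblasts with HSF1-driven luciferase reporter stressed by proteasome inhibitor MG132; luminescence from HSF1-driven luciferase expression after 8 hours of MG132 stress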
T2 sequence (P38532 whole entry): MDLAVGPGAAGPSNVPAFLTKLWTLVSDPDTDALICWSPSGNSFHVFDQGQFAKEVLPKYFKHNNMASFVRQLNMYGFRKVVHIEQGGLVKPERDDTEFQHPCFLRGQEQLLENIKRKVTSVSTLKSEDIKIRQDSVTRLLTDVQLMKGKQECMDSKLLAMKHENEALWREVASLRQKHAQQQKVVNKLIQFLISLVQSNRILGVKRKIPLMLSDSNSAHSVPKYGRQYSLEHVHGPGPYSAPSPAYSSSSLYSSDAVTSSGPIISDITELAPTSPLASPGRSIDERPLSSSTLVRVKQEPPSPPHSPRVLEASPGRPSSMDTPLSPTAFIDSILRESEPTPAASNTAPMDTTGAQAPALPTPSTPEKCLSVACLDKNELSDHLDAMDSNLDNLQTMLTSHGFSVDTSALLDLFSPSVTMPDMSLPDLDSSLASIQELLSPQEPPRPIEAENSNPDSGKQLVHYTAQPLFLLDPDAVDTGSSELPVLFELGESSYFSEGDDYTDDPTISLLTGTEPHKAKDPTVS

[6] = target: T3, Replicative DNA helicase DnaB (Mycobacterium tuberculosis, UniProt P9WMR3); test: DnaB intein splicing inhibitors, dose response, biochemical, cell-free fluorescence (AID 449749); format: functional
T3 sequence (P9WMR3 whole entry): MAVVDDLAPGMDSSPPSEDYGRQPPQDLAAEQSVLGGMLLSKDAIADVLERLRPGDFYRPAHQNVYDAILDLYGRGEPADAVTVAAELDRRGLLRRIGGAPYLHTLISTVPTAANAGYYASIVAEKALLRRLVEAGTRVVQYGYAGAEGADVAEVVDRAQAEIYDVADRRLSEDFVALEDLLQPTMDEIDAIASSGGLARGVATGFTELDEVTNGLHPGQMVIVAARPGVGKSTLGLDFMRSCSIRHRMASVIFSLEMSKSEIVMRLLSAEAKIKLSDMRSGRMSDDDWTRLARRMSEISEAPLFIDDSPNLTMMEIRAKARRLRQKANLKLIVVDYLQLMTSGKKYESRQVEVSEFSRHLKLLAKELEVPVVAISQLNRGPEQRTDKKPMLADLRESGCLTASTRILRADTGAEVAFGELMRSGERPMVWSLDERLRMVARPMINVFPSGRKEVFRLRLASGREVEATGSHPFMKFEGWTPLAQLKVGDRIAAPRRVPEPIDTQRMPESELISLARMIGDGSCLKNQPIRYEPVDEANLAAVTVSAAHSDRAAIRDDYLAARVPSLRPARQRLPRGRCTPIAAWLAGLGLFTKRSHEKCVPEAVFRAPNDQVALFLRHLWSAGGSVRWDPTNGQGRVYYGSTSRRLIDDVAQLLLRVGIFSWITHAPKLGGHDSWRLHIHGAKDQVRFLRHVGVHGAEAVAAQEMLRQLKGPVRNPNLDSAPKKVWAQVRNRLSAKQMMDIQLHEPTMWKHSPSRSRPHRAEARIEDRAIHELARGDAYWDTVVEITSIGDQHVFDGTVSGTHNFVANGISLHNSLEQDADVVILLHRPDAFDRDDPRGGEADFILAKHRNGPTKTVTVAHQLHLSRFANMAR

Vero = Vero cell cytotoxicity, cytotoxicity control for flavivirus capping enzyme inhibitors (AID 588742); format: functional; settings: Chlorocebus sabaeus
Protein RecA = target: T4, Protein RecA (Mycobacterium tuberculosis, UniProt P9WHJ3); test: Fluorescence Cell-Free Homogeneous Dose Retest to Identify Inhibitors of RecA-Intein Splicing Activity. [Related pubchem assays (depositor defined):AID2097, AID2223, AID489010, AID492950]; format: functional
T4 sequence (P9WHJ3 whole entry): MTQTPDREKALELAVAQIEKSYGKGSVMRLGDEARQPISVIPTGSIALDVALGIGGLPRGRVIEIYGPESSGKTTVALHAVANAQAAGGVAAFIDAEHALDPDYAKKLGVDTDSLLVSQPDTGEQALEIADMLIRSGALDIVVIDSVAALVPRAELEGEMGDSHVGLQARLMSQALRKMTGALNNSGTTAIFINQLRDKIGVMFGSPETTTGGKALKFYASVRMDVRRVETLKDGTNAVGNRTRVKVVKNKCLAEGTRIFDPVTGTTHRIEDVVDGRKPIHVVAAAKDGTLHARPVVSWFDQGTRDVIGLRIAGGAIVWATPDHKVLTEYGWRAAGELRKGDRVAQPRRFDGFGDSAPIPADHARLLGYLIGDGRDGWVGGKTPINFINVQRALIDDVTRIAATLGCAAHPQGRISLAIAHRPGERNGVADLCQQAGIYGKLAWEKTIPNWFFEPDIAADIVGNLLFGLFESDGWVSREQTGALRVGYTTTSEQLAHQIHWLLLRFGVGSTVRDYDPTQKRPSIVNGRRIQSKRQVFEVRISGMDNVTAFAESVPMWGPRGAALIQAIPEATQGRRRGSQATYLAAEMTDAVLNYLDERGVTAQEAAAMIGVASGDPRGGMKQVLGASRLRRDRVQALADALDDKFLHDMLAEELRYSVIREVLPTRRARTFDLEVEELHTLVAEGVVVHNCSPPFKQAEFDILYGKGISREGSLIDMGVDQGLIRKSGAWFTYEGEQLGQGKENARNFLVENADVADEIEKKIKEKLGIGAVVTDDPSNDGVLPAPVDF

INS1 = test: beta cell apoptosis inhibitors, cytokine rescue, dose response, luminescence, retest (AID 449756); format: functional, cell-based; settings: Rattus norvegicus;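 also: cell death triggered by IL-1 beta plus TNF-alpha plus IFN-gamma mixture; protective hits raise ATP signal compared with cytokine alone wells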
Genome polyprotein = Genome polyprotein (dengue virus type 2, UniProt P29990); test: Dengue-2 NS5 methyltransferase inhibitors, primary screen, biochemical, confirmation dose response (AID 588689); format: functional
Protein S100-A4 = Protein S100-A4 (Homo sapiens, UniProt P26447); test: S100A4-myosin IIA binding inhibitor potency, dose response, biochemical, fluorescence polarization, cherry-picked hits (AID 687001); format: functional
Caspase-6 = target: T5, Caspase-6 (Homo sapiens, UniProt P55212); test: human caspase-6 inhibitors, dose response, biochemical, VEID-R110 fluorescence, cherry-pick (AID 720632)
T5 sequence (P55212 whole entry): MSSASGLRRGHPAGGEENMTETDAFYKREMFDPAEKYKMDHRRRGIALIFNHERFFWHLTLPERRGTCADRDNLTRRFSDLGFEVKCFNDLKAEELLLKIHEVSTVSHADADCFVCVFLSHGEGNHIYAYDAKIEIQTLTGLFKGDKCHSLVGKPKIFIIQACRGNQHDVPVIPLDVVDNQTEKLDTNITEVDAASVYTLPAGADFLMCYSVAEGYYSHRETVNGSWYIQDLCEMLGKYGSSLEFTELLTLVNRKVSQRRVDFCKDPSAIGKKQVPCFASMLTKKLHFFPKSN

[7] = target: T6, Tyrosyl-DNA phosphodiesterase 2 (Homo sapiens, UniProt O95551); test: human TDP2 enzyme inhibitors, dose response, biochemical, epi absorbance, IC50 (AID 743297)
T6 sequence (O95551 whole entry): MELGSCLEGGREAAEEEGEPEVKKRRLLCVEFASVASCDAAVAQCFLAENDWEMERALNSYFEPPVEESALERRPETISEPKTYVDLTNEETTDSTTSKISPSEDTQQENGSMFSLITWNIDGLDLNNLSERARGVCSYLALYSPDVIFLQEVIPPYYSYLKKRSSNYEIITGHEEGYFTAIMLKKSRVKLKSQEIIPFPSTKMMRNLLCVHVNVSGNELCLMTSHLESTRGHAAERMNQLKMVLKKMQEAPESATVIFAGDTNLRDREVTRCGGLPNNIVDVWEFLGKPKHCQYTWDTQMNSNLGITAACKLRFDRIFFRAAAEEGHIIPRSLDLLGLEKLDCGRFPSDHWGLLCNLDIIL

Chain of Genome polyprotein (P29990 2492-3391 limits assumed): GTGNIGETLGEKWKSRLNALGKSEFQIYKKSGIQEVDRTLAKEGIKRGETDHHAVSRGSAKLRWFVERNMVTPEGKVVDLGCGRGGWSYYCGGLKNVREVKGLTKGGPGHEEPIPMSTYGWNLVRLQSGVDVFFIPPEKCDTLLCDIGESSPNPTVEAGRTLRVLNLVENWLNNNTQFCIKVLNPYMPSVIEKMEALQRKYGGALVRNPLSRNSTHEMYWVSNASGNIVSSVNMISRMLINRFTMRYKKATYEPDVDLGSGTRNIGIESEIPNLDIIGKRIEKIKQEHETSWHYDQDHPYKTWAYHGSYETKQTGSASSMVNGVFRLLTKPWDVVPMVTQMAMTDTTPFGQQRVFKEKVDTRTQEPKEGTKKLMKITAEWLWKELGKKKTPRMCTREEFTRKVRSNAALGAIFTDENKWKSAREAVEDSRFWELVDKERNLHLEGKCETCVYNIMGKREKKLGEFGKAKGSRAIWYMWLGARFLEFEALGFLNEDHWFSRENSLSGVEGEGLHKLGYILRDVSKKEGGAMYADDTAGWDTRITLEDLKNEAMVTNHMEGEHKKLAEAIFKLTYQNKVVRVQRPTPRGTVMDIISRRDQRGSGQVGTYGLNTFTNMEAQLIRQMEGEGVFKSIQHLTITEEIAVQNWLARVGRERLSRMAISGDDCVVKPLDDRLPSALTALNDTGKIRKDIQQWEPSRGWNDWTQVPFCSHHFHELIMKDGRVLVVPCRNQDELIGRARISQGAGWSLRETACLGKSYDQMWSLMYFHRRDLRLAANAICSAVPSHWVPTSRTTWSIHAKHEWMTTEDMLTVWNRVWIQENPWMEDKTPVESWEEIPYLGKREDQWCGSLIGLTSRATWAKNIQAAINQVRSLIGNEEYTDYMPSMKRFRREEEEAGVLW
Chain of Protein S100-A4 (P26447 whole entry): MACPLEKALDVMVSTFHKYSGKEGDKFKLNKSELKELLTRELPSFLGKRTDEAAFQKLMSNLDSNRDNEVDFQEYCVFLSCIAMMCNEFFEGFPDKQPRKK

Compound | EC50 [1] | EC50 [2] | CC50 (MEF) | EC50 [3] | EC50 [4] | EC50 [5] | AC50 [6] | CC50 (Vero) | EC50 (Protein RecA) | AC50 (INS1) | IC50 (Genome polyprotein) | AC50 (Protein S100-A4) | AC50 (Caspase-6) | IC50 [7]
Cc1ccc(C(=O)Oc2cc(N)n(S(=O)(=O)c3ccc(F)cc3)n2)cc1 | > 99 µM (inactive) | 5.26 µM (active) | > 99 µM (inactive) | > 99 µM (inactive) | 4.1 µM (active) |  |  |  |  |  |  |  |  | 
CCC(CNc1cc(OC)cc2cccnc12)NC1CCCCC1 (centres undefined) |  |  |  |  |  | > 195 µM (not active) | > 380 µM (inactive) | > 40 µM (active) | 1.95 µM (active) | 7.62 µM (active) | 39.2 µM (active) | 5.07 µM (active) | 39 µM (active) | 113 µM (inactive)
